Measurements taken from PMC12770330 (Scientific Reports, 2025).

Experiments:
[1] = tested on: α-glucosidase; assay: α-glucosidase inhibitory assay; format: biochemical, Saccharomyces cerevisiae
[2] = tested on: α-glucosidase; assay: in vitro kinetic analysis of α-glucosidase inhibition; format: biochemical, Saccharomyces cerevisiae

| α-glucosidase inhibitory activity (in words) [1] | mode of inhibition ([2]; Km increases, Vmax unchanged) | Ki ([2]; inhibitor 5.00, 10.00, 20.00 µM, substrate 4-nitrophenyl α-D-glucopyranoside) | Structure (SMILES) |
| --- | --- | --- | --- |
| inactive |  |  | CCNC(=S)NC1c2ccccc2CC1O (stereo not drawn) [Compound 2d, 1-ethyl-3-(2-hydroxy-2,3-dihydro-1H-inden-1-yl) thiourea] |
|  | competitive | 7.39 ± 0.088 µM | COc1ccc(NC(=S)NC2c3ccccc3CC2O)cc1 (stereo not drawn) [Compound 2h, 1-(2-hydroxy-2,3-dihydro-1 H-inden-1-yl)-3-(4-methoxyphenyl) thiourea] |
